≈ marks a conversion by molar mass, not a printed value. Entries after “also recorded” stand apart in the source; their conditions may differ.
Columns and labels:
ribosome = experiment: Toeprinting analysis (primer extension inhibition) in cell-free translation, ermBL and ermDL templates; format: biochemical; conditions: 50 μM
Experimental: Toeprinting analysis: The ermBL DNA template for toeprinting was generated by a 4-primer cross-over PCR using primers T7, NV1, ermB3-F and ermB3-R. The ermDL template was generated in the same way using primers RLR-fwd, RLR-rev, T7-SD-fwd and T7-SD-rev. In vitro translation in the PURExpress system (New England Biolabs) and toeprinting analysis were carried out as described previously. […]
Primer sequences used for toeprinting are as follows: T7 (TAATACGACTCACTATAGGG); NV1 (GGTTATAATGAATTTTGCTTATTAAC); ermB3-F (TAATACGACTCACTATAGGGCTTAAGTATAAGGAGGAAAAAATATGTTGGTATTCCAAATGCGTAATGTAGATAAAACATCTAC); ermB3-R (GGTTATAATGAATTTTGCTTATTAACGATAGAATTCTATCACTTATTTCAAAATAGTAGATGTTTTATCTACATTACG); RLR-fwd (GGAGGAAAAAATATGACACACTCAATGAGACTTCGTATTTTCCC); RLR-rev (CTATCACTTACAAAGTTGGGAAAATACGAAGTCTCATTGAG); T7-SD-fwd (TAATACGACTCACTATAGGGCTTAAGTATAAGGAGGAAAAAATATGACACACTCAATG); T7-SD-rev (GGTTATAATGAATTTTGCTTATTAACGATAGAATTCTATCACTTACAAAGTTGGGAAAAT).

E. faecalis ATCC 29212 = experiment: Spontaneous resistance in standard bacterial strains; format: cell-based; conditions: agar with 4×, 8×, 16× MIC, 3 days
Experimental: (§1) […]. Bacterial strains (S. aureus ATCC 29213, S. aureus MRSA, and E. faecalis ATCC 29212) were suspended in normal saline and optical density was adjusted to 1.50 at 600 nm. Bacterial counts were measured by serial dilution and plating. Bacterial inoculum (250 μL) was transferred to the media plate and was spread evenly. Plates were incubated at 37° C. for 3 days, and were observed daily for resistant colonies to emerge.

[1] = tested on: S. aureus ATCC 29213, S. aureus MRSA; experiment: as above; format: cell-based; conditions: agar with 4×, 8×, 16× MIC, 3 days
Experimental: as §1

E. coli HAV504 = experiment: Murine neutropenic thigh infection model; format: in vivo, mice; conditions: neutropenic mouse thigh, E. coli HAV504 (FIG. 4C)
E. coli MP-9 ΔTolC = experiment: MIC (broth microdilution or agar dilution, CLSI); format: cell-based; conditions: Escherichia coli
Procedure, shortened: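 Isolates other than streptococci and anaerobes, which had their own procedures, were grown overnight at 35° C on tryptic soy agar with 5% sheep blood. Suspensions were then diluted to a final inoculum of 5×10^5 CFU/mL in broth microdilution wells.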

[2] = Plasma protein binding, species h; format: in vitro ADME; conditions: human
S. aureus (MRSA) = experiment: Murine neutropenic thigh infection model; conditions: neutropenic mouse thigh, 24 h after a single intraperitoneal dose of 60 mg/kg
Experimental: Animal studies: Animal experiments were performed at the Biology Research Infrastructure Laboratory of Harvard University following IACUC-approved protocols. Animals were maintained in accordance with National Research Council guidelines. Pathogen-free, 5-6-week-old, female CD-1 mice weighing 22-26 grams were obtained from Charles River Laboratories, Inc. (Kingston, N.Y.). Animals were acclimated for a minimum of three days prior to start of the studies. Mice were caged as a group of four per cage, were housed at 21-23° C. with humidity ranging from 30-70%, were exposed to 12-hour light and dark cycles, and were supplied with food and water ad libitum.
Mouse thigh infection studies: Mice were rendered neutropenic by administering cyclophosphamide intraperitoneally, 150 mg/kg four days prior, and 100 mg/kg one day prior to infection. Bacterial strains were cultured overnight on blood agar plates at 35° C. in 5% CO2. […] Homogenates were serially diluted and plated on blood agar plates (each sample was plated in duplicate), and bacterial counts (log10 CFU/thigh) were determined after incubating the plates overnight at 35° C. in 5% CO2. Each experiment was repeated twice, and mean values were calculated (n=4 mice per time point).

[3] = tested on: methicillin-resistant Staphylococcus aureus (MRSA); experiment: MIC, panel of clinically derived MRSA strains; format: cell-based; conditions: result in words
Experimental: (§2) Minimum inhibitory concentrations (MICs) were determined by broth microdilution method or agar dilution method following the Clinical and Laboratory Standards Institute guidelines. Standard bacterial strains were obtained from American Type Culture Collection (ATCC). Other bacterial strains were obtained from hospitals and commercial sources, so noted in Table 11. Before the start of the MIC experiment, standard and test compound stock solutions were prepared in dimethyl sulfoxide (DMSO, Aldrich D2650) at a stock concentration of 5,120 μg/mL. The compound concentration range typically employed for each experiment was 128-0.06 μg/mL (2.5% final DMSO concentration). Clindamycin was used as a comparator in all experiments and each experiment was performed in triplicate. Specialized procedures were employed for streptococcal and anaerobic strains. All other bacterial strains were sub-cultured on blood agar plates (tryptic soy agar with 5% sheep blood, Hardy Diagnostics) and incubated overnight at 35° C. Organisms were suspended in cation-adjusted Mueller-Hinton broth (CaMHB, BD 212322) and optical density was adjusted to 0.5 McFarland standard. Suspensions were further diluted to obtain a final inoculum of 5×10^5 CFU/mL for broth microdilution experiments.

E. coli strain SQ110DTC = experiment: Selection of FSA-513018b resistant mutants in SQ110DTC; format: cell-based; conditions: SQ110DTC plated on agar containing FSA-513018b
Experimental: […]. […] Approximately 20 colonies appeared on both plates after incubation at 37° C. for 24 h. The segment of the 23S rRNA gene corresponding to domains V and VI of the 23S rRNA was PCR-amplified from 14 randomly selected colonies using the primers 2020R (CCCGAGACTCAGTGAAATTGAACTC) and L2904 (AAG GTT AAG CCT CAC GG). PCR products were sequenced using the primer L2667 (GGTCCTCTCGTACTAGGAGCAG).

[4] = tested on: S. aureus MMX USA 300; MRSA; experiment: MIC (broth microdilution or agar dilution, CLSI); format: cell-based; conditions: Staphylococcus aureus
Procedure, shortened: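 MICs were measured by CLSI broth microdilution or agar dilution over 128-0.06 μg/mL test compound at 2.5% final DMSO, in triplicate. Non-streptococcal, aerobic strains were grown overnight at 35° C on sheep blood agar, suspended in cation-adjusted Mueller-Hinton broth to 0.5 McFarland, and diluted to 5×10^5 CFU/mL.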

E. faecalis VRE = experiment: MIC (CLSI), first E. faecalis VRE line of Table 4; format: cell-based; conditions: Enterococcus faecalis, VRE
Experimental: as §2

| SMILES | translation arrest at the start codons of model ORFs (toeprinting) (ribosome) | spontaneous resistance (E. faecalis ATCC 29212) | spontaneous resistance [1] | efficacy in thigh infection model (E. coli HAV504) | MIC (E. coli MP-9 ΔTolC) [µg/mL] | fraction unbound [2] | reduction in bacterial burden vs clindamycin- and vehicle-treated controls (S. aureus (MRSA)) | activity against a panel of clinically derived MRSA strains [3] | frequency of resistant clones (E. coli strain SQ110DTC) | MIC [4] [µg/mL] | MIC (E. faecalis VRE) [µg/mL] |
| --- | --- | --- | --- | --- | --- | --- | --- | --- | --- | --- | --- |
| CSC1O[C@H]([C@H](NC(=O)[C@H]2NC[C@@H]3C[C@H](CC(C)C)CCO[C@H]32)[C@H](C)Cl)C(O)[C@@H](O)[C@H]1O (some centres unmarked) [FSA-513018b] | firmly locked the ribosome at the start codons, allowing virtually no escape | not observed; also recorded: No colonies were noted on any plate | not observed; also recorded: No colonies were noted on any plate | effective | 0.5 (≈ 1.01 µM) | 0.08 | statistically significant reductions | uniformly high activity | ~10^−8 |  |  |
| CCC[C@@H]1C[C@@H](C(=O)N[C@@H]([C@H]2O[C@H](SC)[C@H](O)[C@@H](O)[C@H]2O)[C@H](C)Cl)N(C)C1 [Clindamycin, clindamycin, reference compound] |  |  |  |  |  |  |  |  |  | 0.25 (≈ 0.588 µM) | > 128 |
